The source of these data is article PMC3130825 (Journal of medicinal chemistry, 2010).

The test system of series [1] is nicotine-induced antinociception (tail-flick). In words: Block of nicotine-induced antinociception, tail-flick test. It is filed as in vivo, mice. Conditions: for ED50: Mus musculus, read-out: AD50 Tail-flick; for potency relative to 2 in the tail-flick assay: mouse, in vivo. (In general: In hot-plate and tail-flick tests a longer latency is read as antinociception.)

The target in a further series is α3β4*-nAChR (Homo sapiens, UniProt P30926+P32297). In words: 86Rb+ efflux assay, SH-SY5Y cells. It is filed as cell-based.
Chain of α3β4*-nAChR (P32297 32-505): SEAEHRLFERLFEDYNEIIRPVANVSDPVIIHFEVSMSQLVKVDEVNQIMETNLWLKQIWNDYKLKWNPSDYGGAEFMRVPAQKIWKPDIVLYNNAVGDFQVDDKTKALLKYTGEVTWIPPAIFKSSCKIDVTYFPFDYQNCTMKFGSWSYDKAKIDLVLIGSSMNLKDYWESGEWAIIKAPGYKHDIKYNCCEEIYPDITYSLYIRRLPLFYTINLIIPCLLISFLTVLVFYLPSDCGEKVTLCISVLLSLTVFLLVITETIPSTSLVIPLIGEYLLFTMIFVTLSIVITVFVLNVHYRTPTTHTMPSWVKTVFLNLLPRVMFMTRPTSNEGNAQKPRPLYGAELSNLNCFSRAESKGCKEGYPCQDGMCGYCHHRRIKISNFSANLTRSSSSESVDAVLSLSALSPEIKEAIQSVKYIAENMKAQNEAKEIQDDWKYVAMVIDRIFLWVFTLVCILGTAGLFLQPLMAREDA
Chain of α3β4*-nAChR (P30926 22-498): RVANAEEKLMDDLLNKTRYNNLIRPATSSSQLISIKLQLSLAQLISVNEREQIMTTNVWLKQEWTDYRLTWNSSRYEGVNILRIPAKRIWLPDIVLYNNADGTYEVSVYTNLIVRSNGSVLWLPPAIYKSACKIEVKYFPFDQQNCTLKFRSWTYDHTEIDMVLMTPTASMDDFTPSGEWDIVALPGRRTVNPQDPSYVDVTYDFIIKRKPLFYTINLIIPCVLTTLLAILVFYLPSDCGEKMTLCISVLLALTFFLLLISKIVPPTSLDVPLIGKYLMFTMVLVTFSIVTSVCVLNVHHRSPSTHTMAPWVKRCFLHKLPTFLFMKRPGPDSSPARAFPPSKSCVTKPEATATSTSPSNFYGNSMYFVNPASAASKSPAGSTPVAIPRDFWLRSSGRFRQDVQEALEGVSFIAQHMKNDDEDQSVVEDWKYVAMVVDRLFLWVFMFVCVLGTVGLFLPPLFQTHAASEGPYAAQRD
A further series concerns nicotine-induced CPP. In words: Block of development of nicotine conditioned place preference. Further details: species or system mice. The note with it: mouse, in vivo.
For series [2], the system named is CB-1 cannabinoid receptor. Conditions: cited from earlier work.
In the next series the test system is locomotor activity. The note with it: cited from earlier work.
For series [3] the following is noted: cited from earlier work.
In another series the target is hNET (Homo sapiens, UniProt P23975). In words: [3H]norepinephrine uptake inhibition in HEK293 cells. The series is classed as cell-based. The note with it: for potency relative to 2 as NE uptake inhibitor: better than 2.
Chain of hNET (P23975 whole entry): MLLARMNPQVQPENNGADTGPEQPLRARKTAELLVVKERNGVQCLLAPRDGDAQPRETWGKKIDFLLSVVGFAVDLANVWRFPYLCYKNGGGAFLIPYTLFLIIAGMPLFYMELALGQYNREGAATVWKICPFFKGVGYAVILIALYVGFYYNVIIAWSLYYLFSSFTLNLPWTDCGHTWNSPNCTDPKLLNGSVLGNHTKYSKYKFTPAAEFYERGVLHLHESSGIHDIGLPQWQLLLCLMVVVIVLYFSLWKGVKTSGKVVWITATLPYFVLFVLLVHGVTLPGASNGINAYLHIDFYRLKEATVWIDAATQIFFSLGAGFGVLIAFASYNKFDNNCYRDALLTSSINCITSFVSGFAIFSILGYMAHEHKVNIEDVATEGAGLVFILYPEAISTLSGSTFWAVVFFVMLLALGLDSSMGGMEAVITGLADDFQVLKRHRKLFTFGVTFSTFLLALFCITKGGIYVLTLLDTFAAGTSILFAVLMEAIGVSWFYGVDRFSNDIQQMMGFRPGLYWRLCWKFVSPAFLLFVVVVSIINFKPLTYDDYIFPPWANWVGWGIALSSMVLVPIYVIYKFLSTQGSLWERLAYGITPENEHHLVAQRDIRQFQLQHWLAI
A further series addresses hSERT (Homo sapiens, UniProt P31645). It is filed as cell-based.
The test system of series [4] is nicotine-induced antinociception (hot-plate). In words: Block of nicotine-induced antinociception, hot-plate test. Further details: species or system mice. Conditions: mouse, in vivo.
Series [5] relates to nicotine-induced hypothermia. In words: Block of nicotine-induced hypothermia. Further details: species or system mice. Conditions: mouse, in vivo.
The test system of series [6] is nicotine-induced locomotor effect. In words: Block of nicotine effect on locomotor activity. Further details: species or system mice. The note with it: mouse, in vivo.

Where “and” joins values, the source holds several entries; their conditions need not be identical. Equal values may be shown once.

Chain of hSERT (P31645 whole entry): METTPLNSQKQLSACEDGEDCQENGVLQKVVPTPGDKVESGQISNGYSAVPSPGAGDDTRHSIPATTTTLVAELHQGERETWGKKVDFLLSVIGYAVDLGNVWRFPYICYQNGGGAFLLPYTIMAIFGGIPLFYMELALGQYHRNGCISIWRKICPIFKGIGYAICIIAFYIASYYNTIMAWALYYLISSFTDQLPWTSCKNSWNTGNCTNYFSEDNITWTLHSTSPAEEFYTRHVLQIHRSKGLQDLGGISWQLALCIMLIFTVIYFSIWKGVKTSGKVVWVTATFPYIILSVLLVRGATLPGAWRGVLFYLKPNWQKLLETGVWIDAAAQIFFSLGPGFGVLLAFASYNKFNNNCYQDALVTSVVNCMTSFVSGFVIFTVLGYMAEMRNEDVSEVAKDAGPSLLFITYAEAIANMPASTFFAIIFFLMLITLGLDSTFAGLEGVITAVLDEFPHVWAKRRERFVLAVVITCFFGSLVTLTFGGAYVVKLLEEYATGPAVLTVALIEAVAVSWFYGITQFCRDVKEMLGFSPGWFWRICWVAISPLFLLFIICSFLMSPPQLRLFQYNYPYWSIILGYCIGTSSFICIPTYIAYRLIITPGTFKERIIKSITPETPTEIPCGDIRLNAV

Regarding `CC(NC(C)(C)C)C(=O)c1cccc(Cl)c1` (centres unmarked) [Compound 2, bupropion, reference compound], the ED50 in series [1] is 1.2 mg/kg.
Same read-out and setting: the figure for `Cc1ccc([C@H]2C[C@@H]3CC[C@H]([C@H]2C(=O)OC(C)C)N3C)cc1` [Compound 4a, 3β-(4-Methylphenyl)tropane-2β-carboxylic acid isopropyl ester] is 0.015 mg/kg.
Same read-out and setting: the figure for `COC(=O)[C@@H]1[C@H]2CC[C@@H](C[C@H]1c1ccc(Cl)c(C)c1)N2C` [Compound 4k, 3α-(4-Chloro-3-methylphenyl)tropane-2β-carboxylic acid Methyl Ester] is 0.026 mg/kg.
In the case of `COc1ccc(-c2cc([C@H]3[C@@H](c4ccc(Cl)cc4)C[C@@H]4CC[C@H]3N4C)on2)cc1` [Compound 4e], at α3β4*-nAChR, the “preference for functional inhibition of α3β4*- over α4β4-nAChR” value is reported as above 56 fold. Also, the ED50 in series [1] came out at 0.018 mg/kg.
Turning to `Cc1ccc([C@H]2C[C@@H]3CC[C@H]([C@H]2c2cc(-c4ccc(Cl)cc4)no2)N3C)cc1` [Compound 4d], the ED50 in [1] was above 20 mg/kg. For the same molecule, the “potency relative to 2 in the CPP assay” value in the series with nicotine-induced CPP amounted to 27 fold. Further, the “modulation of the CB-1 cannabinoid receptor” value in series [2] was “positive allosteric modulator”. The “locomotor activity in rats” value in the series on locomotor activity was “did not show locomotor activity”. Further, the “brain levels in in vivo binding studies” value in [3] is “appreciable brain levels were achieved”.
Take `Cc1ccc([C@H]2C[C@@H]3CC[C@H]([C@H]2C(=O)OC2CCC2)N3C)cc1` [Compound 4b]: in series [1], the ED50 amounted to 0.28 mg/kg.
Same read-out and setting: in the case of `COC(=O)[C@H]1[C@@H](c2ccc(Cl)c(C)c2)C[C@@H]2CC[C@H]1N2` [Compound 4h, 3β-(4-chloro-3-methylphenyl)nortropane-2β-carboxylic acid methyl ester] it was 0.003 mg/kg.
For the molecule `CCc1cc([C@H]2[C@@H](c3ccc(C)cc3)C[C@@H]3CC[C@H]2N3C)on1` [Compound 4c, 3β-(4-methylphenyl)-2β-(3′-ethylisoxazol-5′-yl)tropane], the “potency relative to 2 as NE uptake inhibitor” value on hNET is recorded as ~ 170 fold. At hSERT, the “potency relative to 2 as 5HT uptake inhibitor” value is “no less than 5 fold”. Also, in series [1], the ED50 came to 0.008 mg/kg and the “potency relative to 2 in the tail-flick assay” value amounted to 150 fold. Also, in series [4], the “potency relative to 2 in the hot-plate assay” value turned out to be 9 fold. For the same molecule, the “potency relative to 2 in the hypothermia (body temperature) test” value in [5] is recorded as “marginally more potent”.
Consider `COC(=O)[C@H]1[C@@H](c2ccc(Cl)c(C)c2)C[C@@H]2CC[C@H]1N2C` [Compound 4g, 3β-(4-chlorophenyl-3-methyl)tropane-2β-carboxylic acid methyl ester], for which the “potency relative to 2 as NE uptake inhibitor” value on hNET is given as ~ 2000 fold. In addition, in [1], the ED50 is 0.21 mg/kg and the “potency relative to 2 in the tail-flick assay” value came to 6 fold. Also, in [4], the “potency relative to 2 in the hot-plate assay” value was 40 fold. Besides, the “potency relative to 2 in the locomotor test” value in [6] worked out at 44 fold. Moreover, the “potency relative to 2 in the hypothermia (body temperature) test” value in [5] was found to be 65 fold.
Regarding `Cc1cc([C@H]2[C@@H](c3ccc(Cl)c(C)c3)C[C@@H]3CC[C@H]2N3C)on1` [Compound 4i, 3β-(4-chloro-3-methylphenyl)-2β-(3′-methylisoxazol-5′-yl)tropane], the “preference for functional inhibition of α3β4*- over α4β2-nAChR” value on α3β4*-nAChR was 11 fold and 10–13 fold. In series [1], the ED50 worked out at 0.009 mg/kg.
For `Cc1cc([C@H]2C[C@@H]3CC[C@H]([C@H]2c2cc(-c4ccccc4)no2)N3C)ccc1Cl` [Compound 4j], the “preference for NE over DA uptake inhibition” value at hNET is “comparable”. Also, the “preference for functional inhibition of α3β4*- over α4β2-nAChR” value at α3β4*-nAChR is 10–13 fold. For the same molecule, in series [1], the ED50 stood at 2.5 mg/kg.
